# Experimental data reported in patent publication US8067042B1 (Mutual Pharmaceutical Company, Inc., priority 2007, dated 2011).
# Legend:
# [1] = molecular target: T1, CYP2B6 (Homo sapiens, UniProt P20813); settings: 50 μM (with 1% methanol)
# T1 sequence (P20813 1-491): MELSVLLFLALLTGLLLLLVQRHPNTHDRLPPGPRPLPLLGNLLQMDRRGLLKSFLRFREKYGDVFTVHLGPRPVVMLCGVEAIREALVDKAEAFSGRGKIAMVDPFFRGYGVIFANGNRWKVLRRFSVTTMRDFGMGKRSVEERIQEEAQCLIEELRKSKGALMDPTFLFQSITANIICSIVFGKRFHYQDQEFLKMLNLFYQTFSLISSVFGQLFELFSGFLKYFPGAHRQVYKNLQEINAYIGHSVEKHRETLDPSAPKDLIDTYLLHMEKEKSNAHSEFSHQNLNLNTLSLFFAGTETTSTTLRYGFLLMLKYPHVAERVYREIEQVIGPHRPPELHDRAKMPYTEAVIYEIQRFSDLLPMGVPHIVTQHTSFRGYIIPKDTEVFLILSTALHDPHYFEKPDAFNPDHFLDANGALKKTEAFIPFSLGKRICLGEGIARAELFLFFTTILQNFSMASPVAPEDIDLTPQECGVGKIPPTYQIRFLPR
# Method: All incubations were carried out in triplicates.
# [2] = molecular target: T2, CYP2C19 (Homo sapiens, UniProt P33261); type: in vitro ADME; settings: 50 μM megestrol acetate, microsomes
# [3] = system: CYP2E1; type: in vitro ADME; settings: 50 μM megestrol acetate, microsomes, diethyldithiocarbamate
# [4] = molecular target: CYP3A4 (Homo sapiens, UniProt P08684); type: in vitro ADME; settings: 50 μM megestrol acetate, microsomes, ketoconazole
# [5] = molecular target: T3, CYP1A2 (Homo sapiens, UniProt P05177)
# T3 sequence (P05177 1-516): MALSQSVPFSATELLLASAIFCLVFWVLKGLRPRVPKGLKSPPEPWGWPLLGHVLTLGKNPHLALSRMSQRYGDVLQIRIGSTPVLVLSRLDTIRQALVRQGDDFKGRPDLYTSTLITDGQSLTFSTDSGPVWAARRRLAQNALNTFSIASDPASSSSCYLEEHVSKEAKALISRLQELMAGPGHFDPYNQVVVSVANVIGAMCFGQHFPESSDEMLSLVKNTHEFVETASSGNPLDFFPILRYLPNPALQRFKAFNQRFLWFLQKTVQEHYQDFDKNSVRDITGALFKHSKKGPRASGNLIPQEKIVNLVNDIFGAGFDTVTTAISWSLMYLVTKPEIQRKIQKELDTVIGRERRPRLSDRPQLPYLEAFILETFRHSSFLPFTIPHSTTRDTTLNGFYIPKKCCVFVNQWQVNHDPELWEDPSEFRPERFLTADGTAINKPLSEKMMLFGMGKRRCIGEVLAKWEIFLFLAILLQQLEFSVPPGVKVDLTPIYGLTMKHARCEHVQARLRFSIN
# Method: (§1) The stock solutions were added to incubation mixtures to obtain the final concentrations of 5 and 50 μM, each containing 1% acetonitrile.
# (§2) Microsomes were prepared by differential centrifugation of liver homogenates pooled from at least ten human donors.
# (§3) After a 5 minute preincubation, nicotinamide adenine dinucleotide phosphate (NADPH) regenerating system (NRS; 1.7 mg/mL β-NADP, 7.8 mg/mL glucose-6-phosphate, and 6 units/mL glucose-6-phosphate dehydrogenase in 2% sodium bicarbonate solution) was added to initiate the reaction. The final incubation volume was 0.5 mL. Incubations were continued for 60 minutes.
# (§4) All incubations were conducted at 37±1° C. in a shaking water bath. All incubations were carried out in triplicates.
# (§5) After a 5-minute preincubation, 2% sodium bicarbonate solution was added to the incubation mixtures. The final incubation volume was 0.5 mL. Incubations were continued for 60 minutes.
# (§6) Incubation reactions, including the matrix controls and metabolic negative controls, were terminated by adding 0.5 mL methanol.
# (§7) The samples were analyzed on a Supelcosil LC-18 column (3μ, 120 Å, 3.0×100 mm).
# [6] = system: CYP2A6
# [7] = molecular target: T2, CYP2C19
# Method: as §1, §2, §3, §4, §5, §6, §7
# [8] = system: CYP2A6; settings: 50 μM megestrol acetate, microsomes, tranylcypromine
# [9] = molecular target: T3, CYP1A2; type: in vitro ADME; parameters: purchased BD Biosciences Discovery Labware, Woburn, Mass; host or cells: baculovirus-infected insect cells; settings: 50 μM megestrol acetate, 20 pmol CYP1A2
# [10] = molecular target: T1, CYP2B6; type: in vitro ADME; parameters: purchased BD Biosciences Discovery Labware, Woburn, Mass; host or cells: baculovirus-infected insect cells; settings: 50 μM megestrol acetate, 20 pmol CYP2B6
# [11] = molecular target: T4, CYP2C8 (Homo sapiens, UniProt P10632); type: in vitro ADME; parameters: purchased BD Biosciences Discovery Labware, Woburn, Mass; host or cells: baculovirus-infected insect cells; settings: 50 μM megestrol acetate, 20 pmol CYP2C8
# T4 sequence (P10632 1-490): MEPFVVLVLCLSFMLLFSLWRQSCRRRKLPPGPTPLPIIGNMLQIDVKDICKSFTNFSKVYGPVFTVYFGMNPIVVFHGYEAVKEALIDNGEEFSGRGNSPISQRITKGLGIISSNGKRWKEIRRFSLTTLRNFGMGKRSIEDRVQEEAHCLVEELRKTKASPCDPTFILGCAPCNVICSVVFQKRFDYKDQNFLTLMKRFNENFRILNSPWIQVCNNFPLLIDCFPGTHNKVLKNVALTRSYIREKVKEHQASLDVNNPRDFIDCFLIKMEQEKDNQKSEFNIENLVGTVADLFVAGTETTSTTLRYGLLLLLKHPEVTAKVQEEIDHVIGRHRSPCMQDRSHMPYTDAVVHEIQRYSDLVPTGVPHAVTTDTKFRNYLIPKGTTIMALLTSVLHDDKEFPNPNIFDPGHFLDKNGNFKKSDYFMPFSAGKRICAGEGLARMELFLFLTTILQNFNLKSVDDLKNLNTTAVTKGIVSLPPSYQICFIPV
# [12] = molecular target: CYP2C9 (Homo sapiens, UniProt P11712); type: in vitro ADME; parameters: purchased BD Biosciences Discovery Labware, Woburn, Mass; host or cells: baculovirus-infected insect cells; settings: 50 μM megestrol acetate, 20 pmol CYP2C9
# [13] = molecular target: T2, CYP2C19; type: in vitro ADME; parameters: purchased BD Biosciences Discovery Labware, Woburn, Mass; host or cells: baculovirus-infected insect cells; settings: 50 μM megestrol acetate, 20 pmol CYP2C19
# [14] = molecular target: CYP2D6 (Homo sapiens, UniProt P10635); type: in vitro ADME; parameters: purchased BD Biosciences Discovery Labware, Woburn, Mass; host or cells: baculovirus-infected insect cells; settings: 50 μM megestrol acetate, 20 pmol CYP2D6
# [15] = human, microsomes, 60 min, pH 7.4
# T2 sequence (P33261 whole entry): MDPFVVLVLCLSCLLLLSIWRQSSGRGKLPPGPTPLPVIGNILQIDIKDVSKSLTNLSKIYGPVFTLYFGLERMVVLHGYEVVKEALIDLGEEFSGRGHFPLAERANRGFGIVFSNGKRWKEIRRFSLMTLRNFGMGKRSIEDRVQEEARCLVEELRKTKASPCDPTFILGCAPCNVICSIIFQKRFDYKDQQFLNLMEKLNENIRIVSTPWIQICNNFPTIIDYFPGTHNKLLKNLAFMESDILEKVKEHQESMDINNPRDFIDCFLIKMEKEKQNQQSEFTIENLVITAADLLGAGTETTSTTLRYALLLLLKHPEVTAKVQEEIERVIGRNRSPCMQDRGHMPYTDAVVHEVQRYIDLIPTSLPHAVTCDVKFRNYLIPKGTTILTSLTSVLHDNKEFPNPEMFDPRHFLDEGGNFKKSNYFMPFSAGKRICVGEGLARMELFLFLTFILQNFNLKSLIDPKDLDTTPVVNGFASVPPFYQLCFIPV
# Chain of CYP3A4 (P08684 whole entry): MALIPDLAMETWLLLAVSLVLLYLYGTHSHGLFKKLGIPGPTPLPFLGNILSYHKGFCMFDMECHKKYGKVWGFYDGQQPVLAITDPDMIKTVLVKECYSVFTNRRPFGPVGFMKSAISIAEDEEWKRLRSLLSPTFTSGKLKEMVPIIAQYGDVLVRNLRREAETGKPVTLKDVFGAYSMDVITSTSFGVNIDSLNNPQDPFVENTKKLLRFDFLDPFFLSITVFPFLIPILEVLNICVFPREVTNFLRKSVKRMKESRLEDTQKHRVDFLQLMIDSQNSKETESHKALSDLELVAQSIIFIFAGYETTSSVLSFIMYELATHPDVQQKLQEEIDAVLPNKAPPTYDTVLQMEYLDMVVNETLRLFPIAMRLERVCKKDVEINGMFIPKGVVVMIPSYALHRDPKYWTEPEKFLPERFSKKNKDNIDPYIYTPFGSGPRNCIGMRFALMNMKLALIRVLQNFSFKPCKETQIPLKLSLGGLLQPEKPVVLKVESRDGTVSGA
# Chain of CYP2C9 (P11712 whole entry): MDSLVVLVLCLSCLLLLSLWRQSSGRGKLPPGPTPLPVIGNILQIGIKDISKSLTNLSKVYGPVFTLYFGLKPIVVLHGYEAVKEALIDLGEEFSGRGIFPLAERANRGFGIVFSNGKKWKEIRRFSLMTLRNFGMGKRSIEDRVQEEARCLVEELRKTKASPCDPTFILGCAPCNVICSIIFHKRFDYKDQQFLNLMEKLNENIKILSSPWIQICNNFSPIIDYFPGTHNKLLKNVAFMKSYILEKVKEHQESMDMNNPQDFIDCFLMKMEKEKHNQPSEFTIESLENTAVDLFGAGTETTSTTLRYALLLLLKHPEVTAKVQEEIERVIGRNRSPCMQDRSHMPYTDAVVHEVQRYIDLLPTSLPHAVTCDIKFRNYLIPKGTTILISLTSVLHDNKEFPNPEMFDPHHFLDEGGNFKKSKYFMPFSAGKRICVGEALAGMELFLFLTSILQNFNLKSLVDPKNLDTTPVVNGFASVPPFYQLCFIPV
# Chain of CYP2D6 (P10635 whole entry): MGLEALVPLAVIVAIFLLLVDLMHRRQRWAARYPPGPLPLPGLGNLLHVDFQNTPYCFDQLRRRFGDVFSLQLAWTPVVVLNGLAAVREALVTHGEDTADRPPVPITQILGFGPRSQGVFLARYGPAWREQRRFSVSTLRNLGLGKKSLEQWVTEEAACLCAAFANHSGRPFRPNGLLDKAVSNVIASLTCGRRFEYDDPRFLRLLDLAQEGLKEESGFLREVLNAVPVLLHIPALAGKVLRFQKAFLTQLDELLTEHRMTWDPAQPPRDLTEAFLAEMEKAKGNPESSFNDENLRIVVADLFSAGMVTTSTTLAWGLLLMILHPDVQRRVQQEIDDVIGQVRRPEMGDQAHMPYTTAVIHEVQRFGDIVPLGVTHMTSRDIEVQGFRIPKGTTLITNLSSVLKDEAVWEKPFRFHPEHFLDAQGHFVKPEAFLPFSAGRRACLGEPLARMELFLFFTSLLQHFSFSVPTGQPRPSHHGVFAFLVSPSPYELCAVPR
smiles,measurement,setting,value
"CC(=O)O[C@]1(C(C)=O)CC[C@H]2[C@@H]3C=C(C)C4=CC(=O)CC[C@]4(C)[C@H]3CC[C@@]21C [Megestrol Acetate, 17 α-acetyloxy-6-methylpregna-4,6-diene-3,20-dione]",Percent of Parent Disappearance Individual,[1],54.8%
same,difference in metabolism in the presence or absence of the inhibitor (LC/MS),[2],no significant difference in metabolism
same,difference in metabolism in the presence or absence of the inhibitor (LC/MS),[3],a significant difference in metabolism
same,difference in metabolism in the presence or absence of the inhibitor (LC/MS),[4],a significant difference in metabolism
same,percent metabolized in presence vs absence of inhibitor (unpaired two-tailed t-test),[5],does not differ from the percentage of megestrol acetate metabolized in the absence of the inhibitor
same,metabolized in pooled human liver microsomes,[5]; [15],> 20%
same,percent metabolized in presence vs absence of inhibitor (unpaired two-tailed t-test),[6],less than that of the percentage of megestrol acetate metabolized in the absence of the inhibitor
same,metabolized in pooled human liver microsomes,[6]; [15],> 20%
same,percent metabolized in presence vs absence of inhibitor (unpaired two-tailed t-test),[7],not different from the percentage of megestrol acetate metabolized in the absence of the inhibitor
same,metabolized in pooled human liver microsomes,[7]; [15],> 20%
same,difference in metabolism in the presence or absence of the inhibitor (LC/MS),[8],a slight difference in metabolism
same,metabolism based on analysis of metabolites formed,[9],< 1%
same,metabolites observed,[10],1.23%
same,megestrol acetate converted to its metabolites,[11],0.72%
same,metabolites formed,[12],no metabolites observed
same,metabolites detected,[13],1.14%
same,metabolites formed,[14],no metabolites were detected
